One may read the IC50 as the point on the concentration scale where inhibition reaches its midpoint.

In one data set the target is EGFR (Homo sapiens (Human), UniProt P00533). Nature of the data set: Kinase inhibition, Mobility Shift Assay (EGFR). It is filed as biochemical. As to the method: (§1) This assay directly monitored the ability of compounds to inhibit kinase phosphorylation by measuring non-phosphorylated and phosphorylated substrates in kinase reactions by using Mobility Shift Assays/IMAP™ analysis.
Chain of EGFR (P00533 25-1210): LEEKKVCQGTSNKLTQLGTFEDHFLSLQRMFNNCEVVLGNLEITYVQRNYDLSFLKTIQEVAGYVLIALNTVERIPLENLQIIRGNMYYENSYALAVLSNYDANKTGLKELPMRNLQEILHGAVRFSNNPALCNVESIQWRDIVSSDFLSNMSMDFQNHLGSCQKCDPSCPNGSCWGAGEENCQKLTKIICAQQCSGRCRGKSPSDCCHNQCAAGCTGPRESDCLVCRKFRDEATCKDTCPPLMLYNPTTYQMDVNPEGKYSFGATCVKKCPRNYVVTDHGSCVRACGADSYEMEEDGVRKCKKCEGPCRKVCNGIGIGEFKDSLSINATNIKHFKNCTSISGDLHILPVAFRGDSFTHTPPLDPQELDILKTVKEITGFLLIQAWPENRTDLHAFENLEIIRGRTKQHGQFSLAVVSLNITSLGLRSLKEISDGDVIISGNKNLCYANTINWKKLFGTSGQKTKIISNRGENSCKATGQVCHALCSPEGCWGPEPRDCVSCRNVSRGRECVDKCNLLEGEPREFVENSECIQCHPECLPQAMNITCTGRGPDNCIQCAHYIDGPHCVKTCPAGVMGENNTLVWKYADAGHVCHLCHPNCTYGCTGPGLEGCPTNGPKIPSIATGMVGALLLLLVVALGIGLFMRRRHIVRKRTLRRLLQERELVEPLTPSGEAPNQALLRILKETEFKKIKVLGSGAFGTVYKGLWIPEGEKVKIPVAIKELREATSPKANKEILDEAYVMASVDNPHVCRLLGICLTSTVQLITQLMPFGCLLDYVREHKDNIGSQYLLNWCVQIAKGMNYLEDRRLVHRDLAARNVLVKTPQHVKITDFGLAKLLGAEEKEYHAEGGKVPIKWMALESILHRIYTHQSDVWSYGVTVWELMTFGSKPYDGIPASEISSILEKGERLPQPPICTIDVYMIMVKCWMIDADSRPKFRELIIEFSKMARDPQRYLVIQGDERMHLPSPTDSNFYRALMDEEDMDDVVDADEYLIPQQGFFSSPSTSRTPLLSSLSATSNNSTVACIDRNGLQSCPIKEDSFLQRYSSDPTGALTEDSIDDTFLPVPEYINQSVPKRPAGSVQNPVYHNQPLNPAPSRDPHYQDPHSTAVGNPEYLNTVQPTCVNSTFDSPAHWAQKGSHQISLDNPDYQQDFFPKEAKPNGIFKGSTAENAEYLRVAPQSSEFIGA
(§2) Add the kinase and DTT to 1× kinase buffer to form a 2.5× kinase solution; transfer 10 μL of 2.5× kinase solution to a 384-well reaction plate and add 1× kinase buffer to negative control wells. Incubate the plate for 10 min at room temperature; add FAM-labeled peptides, MgCl2, ATP and other reagents to 1× kinase buffer to form a 2.5× substrate solution; transfer 10 μL of the above 2.5× substrate solution to the 384-well reaction plate; incubate the plate at 28° C. for different times, and add 25 μL of stop solution to the 384-well reaction plate to stop the reaction. Read the conversion ratio data on CaliperEZ Reader II. Convert conversion rates into inhibition ratio data.
(§3) “Min” indicates the readout of the control well without the addition of kinase; and “Max” indicates the readout of the control well with the addition of DMSO. Fit IC50 values with XLFit excel add-in version 5.4.0.8.
(§4) X indicates the log value of compound concentration, and Y indicates the inhibition ratio (% inhibition).

The target of another data set is KDR (VEGFR2) (Homo sapiens (Human), UniProt P35968). Kind of data set: Kinase inhibition, Mobility Shift Assay (VEGFR2). It is filed as biochemical. The procedure:
as §1, §2, §3, §4

Another data set relates to melanin. Nature of the data set: Binding capacity of compounds to melanin. As to conditions: Sepia officinalis (cuttlefish), melanin suspension (1 mg/mL); 1 mg/mL melanin suspension in PBS pH 7.4, 2 μM compound, 2 h at 37° C.; read-out: Fu % (percentage of free drug, not bound to melanin). In kind it is in vitro ADME. An excerpt: Pigmented eye tissues contain melanin in intracellular melanosomes. Drugs bind to melanin to varying degrees, ranging from non-binding to extensive binding. Therefore, melanin binding is an important feature that affects drug delivery and biodistribution in the eye. The binding capacity of a compound to the melanin must be considered in the development of ophthalmic drugs.
Melanin was derived from the melanin of cuttlefish (Sepia officinalis) and was commercially available from Sigma Aldrich (St Louis, MO).
First, prepare 1 mg/mL melanin suspension with PBS (pH 7.4). As a washing step for the matrix, centrifuge the suspended particles for 5 min at 3000 rpm. Resuspend the resulting particles in a fresh PBS buffer, heat to 37° C. over continuous shaking and incubate it for 1 h. Accurately pipette 2 μL of the test stock solution (0.1 mM) into 98 μL of melanin suspension (1 mg/mL) to achieve a final incubation concentration of 2 μM. Similarly, accurately pipette 2 μL of the stock solution (0.1 mM) to 98 μL of PBS buffer (containing 0.1% BSA) as a blank control sample. Incubate the samples in a shaker (80-90 rpm) for 2 h at 37° C. Then, centrifuge the samples at room temperature. Pipette 50 μL of the supernatant and add 50 μL of precipitant (containing an internal standard). After protein precipitation of all the above samples, centrifuge the samples to collect the supernatants, dilute the supernatants with water (if necessary) and inject them for analysis. At the same time, measure the positive controls, including the high-binding compounds Sunitinib and chloroquine and the low-binding compound celecoxib. Establish an LC-MS/MS method for determining compound concentrations, and calibrate the peak area ratio of analyte/internal standard (Analyte/AIS) in the measured sample by the dilution factor to take it as an alternative concentration for the sample for data processing. The binding rate (Fh) of a compound in melanin was calculated as: […]
Ctest was the concentration of the compound in the melanin-incubated sample or the peak area ratio of the test compound to the internal standard. Ccontrol was the concentration of the compound in the blank control sample or the peak area ratio of the test compound to the internal standard. Percentage of free drug (Fu %)=100−Fb The binding rates of the compounds of the present invention to melanin are shown in the table below: […]

The target of a further data set is FLT1 (VEGFR1) (Homo sapiens (Human), UniProt P17948). Nature of the data set: Kinase inhibition, Mobility Shift Assay (VEGFR1). It is filed as biochemical. As to the method:
as §1, §2, §3, §4

Chain of KDR (VEGFR2) (P35968 790-1356): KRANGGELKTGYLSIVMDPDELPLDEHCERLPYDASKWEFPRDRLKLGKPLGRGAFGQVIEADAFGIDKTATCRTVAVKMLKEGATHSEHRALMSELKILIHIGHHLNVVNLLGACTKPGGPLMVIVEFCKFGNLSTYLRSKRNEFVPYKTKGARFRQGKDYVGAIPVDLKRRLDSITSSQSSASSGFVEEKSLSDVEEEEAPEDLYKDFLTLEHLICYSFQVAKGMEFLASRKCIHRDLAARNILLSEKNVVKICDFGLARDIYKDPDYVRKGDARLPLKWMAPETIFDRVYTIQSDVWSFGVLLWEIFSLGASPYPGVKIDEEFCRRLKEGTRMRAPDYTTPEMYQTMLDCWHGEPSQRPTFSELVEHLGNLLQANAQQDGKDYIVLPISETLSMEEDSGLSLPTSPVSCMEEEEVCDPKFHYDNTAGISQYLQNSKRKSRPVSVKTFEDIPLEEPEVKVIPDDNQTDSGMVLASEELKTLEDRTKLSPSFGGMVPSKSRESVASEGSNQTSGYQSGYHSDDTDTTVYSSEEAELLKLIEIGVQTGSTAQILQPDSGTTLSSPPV
Chain of FLT1 (VEGFR1) (P17948 27-1338): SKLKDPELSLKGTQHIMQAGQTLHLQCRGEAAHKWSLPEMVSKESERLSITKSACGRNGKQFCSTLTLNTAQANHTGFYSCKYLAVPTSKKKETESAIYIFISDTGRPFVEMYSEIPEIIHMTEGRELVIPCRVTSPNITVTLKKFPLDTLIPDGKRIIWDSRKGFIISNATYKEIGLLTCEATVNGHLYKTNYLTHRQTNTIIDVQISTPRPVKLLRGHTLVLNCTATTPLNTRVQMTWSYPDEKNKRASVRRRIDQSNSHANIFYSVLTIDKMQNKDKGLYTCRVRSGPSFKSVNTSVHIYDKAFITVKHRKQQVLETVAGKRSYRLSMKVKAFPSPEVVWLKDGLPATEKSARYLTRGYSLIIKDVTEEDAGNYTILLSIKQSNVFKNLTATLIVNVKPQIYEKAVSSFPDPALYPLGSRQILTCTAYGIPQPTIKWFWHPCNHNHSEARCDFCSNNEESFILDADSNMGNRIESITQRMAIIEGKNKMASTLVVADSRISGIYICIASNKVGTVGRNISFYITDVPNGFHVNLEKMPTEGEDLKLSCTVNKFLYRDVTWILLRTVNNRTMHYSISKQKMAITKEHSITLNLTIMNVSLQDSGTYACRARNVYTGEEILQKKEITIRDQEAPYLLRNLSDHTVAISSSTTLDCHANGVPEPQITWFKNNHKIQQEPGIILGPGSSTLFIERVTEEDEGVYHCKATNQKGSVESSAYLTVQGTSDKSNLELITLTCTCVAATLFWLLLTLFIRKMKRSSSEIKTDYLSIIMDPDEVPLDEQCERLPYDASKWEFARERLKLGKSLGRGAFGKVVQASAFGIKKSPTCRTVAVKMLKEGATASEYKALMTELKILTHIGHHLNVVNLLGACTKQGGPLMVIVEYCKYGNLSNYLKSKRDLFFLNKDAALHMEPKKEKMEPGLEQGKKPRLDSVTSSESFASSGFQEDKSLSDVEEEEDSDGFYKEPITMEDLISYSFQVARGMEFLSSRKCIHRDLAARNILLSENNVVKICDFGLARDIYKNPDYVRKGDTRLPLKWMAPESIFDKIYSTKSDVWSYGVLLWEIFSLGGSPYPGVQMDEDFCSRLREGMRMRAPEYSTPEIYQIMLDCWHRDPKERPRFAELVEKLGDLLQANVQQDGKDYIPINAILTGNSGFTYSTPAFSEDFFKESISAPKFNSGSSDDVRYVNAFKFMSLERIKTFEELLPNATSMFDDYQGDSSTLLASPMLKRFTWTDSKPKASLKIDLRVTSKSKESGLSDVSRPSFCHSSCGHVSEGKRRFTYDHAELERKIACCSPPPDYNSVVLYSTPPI

`CCNC(=O)c1ccccc1Sc1ccc2c(/C=C/c3ccc(CN4CCCC4)cn3)n[nH]c2c1` [Compound I-73, N-ethyl-2-({3-[(E)-2-{5-[(pyrrolidin-1-yl)methyl]pyridin-2-yl}vinyl]-1H-indazol-6-yl}thio)benzamide]: the IC50 at EGFR fell in the range of 6000 to 60000 nM; on KDR (VEGFR2), 1 to 10 nM. In the data set with melanin, the fraction unbound at 2 h, 2 μM lay within 0.01 to 0.05.

Take `O=C(NC1CC1)c1ccccc1Sc1ccc2c(/C=C/c3ccc(OCCN4CCCCC4)cn3)n[nH]c2c1` [Compound I-53, N-cyclopropyl-2-({3-[(E)-2-{5-[2-(piperidin-1-yl)ethoxy]pyridin-2-yl}vinyl]-1H-indazol-6-yl}thio)benzamide]: the fraction unbound at 2 h, 2 μM with melanin was above 0.05.

As to `CNC(=O)c1ccc(F)cc1Sc1ccc2c(/C=C/c3ccc(CN4CCCC4)cn3)n[nH]c2c1` [Compound I-94, 4-fluoro-N-methyl-2-({3-[(E)-2-{5-[(pyrrolidin-1-yl)methyl]pyridin-2-yl}vinyl]-1H-indazol-6-yl}thio)benzamide], the values for the IC50 on EGFR and on KDR (VEGFR2) were 6000 to 60000 nM and 1 to 10 nM, respectively. The fraction unbound at 2 h, 2 μM with melanin lay within 0.01 to 0.05.

For `CNC(=O)c1ccccc1Sc1ccc2c(/C=C/c3ccc(OCC4CCCN4C)cn3)n[nH]c2c1` (stereo not drawn) [Compound I-2, N-methyl-2-({3-[(E)-2-{5-[(1-methylpyrrolidin-2-yl)methoxy]pyridin-2-yl}vinyl]-1H-indazol-6-yl}thio)benzamide], the IC50 on FLT1 (VEGFR1) and on KDR (VEGFR2) was at most 1 nM each time. Besides, the fraction unbound at 2 h, 2 μM in the data set on melanin was 0.01 to 0.05.

With `CCN(CC)Cc1ccc(/C=C/c2n[nH]c3cc(Sc4c(F)cccc4C(=O)NC)ccc23)nc1` [Compound I-91, 2-({3-[(E)-2-{5-[(diethylamino)methyl]pyridin-2-yl}vinyl]-1H-indazol-6-yl}thio)-3-fluoro-N-methylbenzamide], the IC50 lay in the range of 6000 to 60000 nM on EGFR and 1 to 10 nM on KDR (VEGFR2). Further, the fraction unbound at 2 h, 2 μM in the data set with melanin lay in the range of 0.01 to 0.05.

For the compound `CCN(CC)Cc1ccc(/C=C/c2n[nH]c3cc(Sc4ccccc4C(=O)NCC(F)F)ccc23)nc1` [Compound I-99, 2-({3-[(E)-2-{5-[(diethylamino)methyl]pyridin-2-yl}vinyl]-1H-indazol-6-yl}thio)-N-(2,2-difluoroethyl)benzamide], the results for the IC50 on EGFR and at KDR (VEGFR2) were 6000 to 60000 nM and 1 to 10 nM, respectively. Further, the fraction unbound at 2 h, 2 μM in the data set on melanin was above 0.05.

As to `O=C(NC1CC1)c1cccc(F)c1Sc1ccc2c(/C=C/c3cnn(CCCN4CCCC4)c3)n[nH]c2c1` [Compound I-44, N-cyclopropyl-3-fluoro-2-({3-[(E)-2-{1-[3-(pyrrolidin-1-yl)propyl]-1H-pyrazol-4-yl}vinyl]-1H-indazol-6-yl}thio)benzamide], the fraction unbound at 2 h, 2 μM with melanin fell in the range of 0.01 to 0.05.

For the compound `CNC(=O)c1cccc(F)c1Sc1ccc2c(/C=C/c3cnn(CCCN4CCCC4)c3)n[nH]c2c1` [Compound I-76, 3-fluoro-N-methyl-2-({3-[(E)-2-{1-[3-(pyrrolidin-1-yl)propyl]-1H-pyrazol-4-yl}vinyl]-1H-indazol-6-yl}thio)benzamide], the values for the IC50 at EGFR and at KDR (VEGFR2) were 600 to 6000 nM and 1 to 10 nM, respectively. Moreover, the fraction unbound at 2 h, 2 μM with melanin was above 0.05.

For `O=C(NC1CC1)c1ccccc1Nc1ccc2c(/C=C/c3ccc(CN4CCCC4)cn3)n[nH]c2c1` [Compound I-82, N-cyclopropyl-2-({3-[(E)-2-{5-[(pyrrolidin-1-yl)methyl]pyridin-2-yl}vinyl]-1H-indazol-6-yl}amino)benzamide], the IC50 on EGFR is 6000 to 60000 nM; on KDR (VEGFR2), at most 1 nM. Also, the fraction unbound at 2 h, 2 μM in the data set on melanin lay within 0.01 to 0.05.

`CN(C)CCOc1ccc(/C=C/c2n[nH]c3cc(Sc4ccccc4C(=O)NC4CC4)ccc23)nc1` [Compound I-51, N-cyclopropyl-2-({3-[(E)-2-{5-[2-(dimethylamino)ethoxy]pyridin-2-yl}vinyl]-1H-indazol-6-yl}thio)benzamide]: the fraction unbound at 2 h, 2 μM with melanin is 0.01 to 0.05.

For `CNC(=O)c1ccccc1Sc1ccc2c(/C=C/c3ccc(OCC4CCNC4)cn3)n[nH]c2c1` (stereo not drawn) [Compound I-7], the IC50 at FLT1 (VEGFR1) was at most 1 nM. Moreover, the fraction unbound at 2 h, 2 μM with melanin is above 0.05.

For `CCN(CC)Cc1ccc(/C=C/c2n[nH]c3cc(Sc4ccccc4C(=O)NCCF)ccc23)nc1` [Compound I-98, 2-({3-[(E)-2-{5-(diethylamino)methyl]pyridin-2-ylvinyl]-1H-indazol-6-yl}thio)-N-(2-fluoroethyl)benzamide], the values for the IC50 at EGFR and at KDR (VEGFR2) were 6000 to 60000 nM and 1 to 10 nM, respectively. In addition, the fraction unbound at 2 h, 2 μM in the data set with melanin is above 0.05.

On to `O=C(NC1CC1)c1ccc(F)cc1Sc1ccc2c(/C=C/c3ccc(CN4CCCC4)cn3)n[nH]c2c1` [Compound I-79, N-cyclopropyl-4-fluoro-2-({3-[(E)-2-{5-[(pyrrolidin-1-yl)methyl]pyridin-2-yl}vinyl]-1H-indazol-6-yl}thio)benzamide], for which the figures for the IC50 at EGFR and at KDR (VEGFR2) were 6000 to 60000 nM and at most 1 nM, respectively. Further, in the data set with melanin, the fraction unbound at 2 h, 2 μM is above 0.05.

As for `O=C(NC1CC1)c1cccc(F)c1Sc1ccc2c(/C=C/c3cccc(CCCN4CCCC4)n3)n[nH]c2c1` [Compound I-124], the results for the IC50 on EGFR and at KDR (VEGFR2) were 6000 to 60000 nM and 10 to 100 nM, respectively.

Regarding `O=C(NC1CC1)c1ccccc1Sc1ccc2c(/C=C/c3cc(CCN4CCCC4)ccn3)n[nH]c2c1` [Compound I-133, N-cyclopropyl-2-({3-[(E)-2-{4-[2-(pyrrolidin-1-yl)ethyl]pyridin-2-yl}vinyl]-1H-indazol-6-yl}thio)benzamide], the figures for the IC50 at EGFR and on KDR (VEGFR2) were above 60000 nM and 1 to 10 nM, respectively.

Regarding `O=C(NC1CC1)c1cccc(F)c1Sc1ccc2c(/C=C/c3cc(CCCN4CCCC4)ccn3)n[nH]c2c1` [Compound I-123], the 50% inhibitory concentration (IC50) was above 60000 nM at EGFR and 10 to 100 nM at KDR (VEGFR2).

`CCN(CC)Cc1ccc(/C=C/c2n[nH]c3cc(Sc4ccc(F)cc4C(=O)NC)ccc23)nc1` [Compound I-93, 2-({3-[(E)-2-{5-[(diethylamino)methyl]pyridin-2-yl}vinyl]-1H-indazol-6-yl}thio)-5-fluoro-N-methylbenzamide]: the IC50 lay within 6000 to 60000 nM on EGFR and 1 to 10 nM at KDR (VEGFR2). Also, the fraction unbound at 2 h, 2 μM in the data set with melanin lay in the range of 0.01 to 0.05.

For the compound `CCN(C)CCOc1ccc(/C=C/c2n[nH]c3cc(Sc4ccccc4C(=O)NC4CC4)ccc23)nc1` [Compound I-52, N-cyclopropyl-2-({3-[(E)-2-{5-[2-(diethylamino)ethoxy]pyridin-2-yl}vinyl]-1H-indazol-6-yl}thio)benzoyl], in the data set on melanin, the fraction unbound at 2 h, 2 μM was above 0.05.

For `O=C(NC1CC1)c1cccc(F)c1Sc1ccc2c(/C=C/c3cc(OCCN4CCCC4)ccn3)n[nH]c2c1` [Compound I-112, N-cyclopropyl-3-fluoro-2-({3-[(E)-2-{4-[2-(pyrrolidin-1-yl)ethoxy]pyridin-2-yl}vinyl]-1H-indazol-6-yl}thio)benzamide], the figures for the IC50 on EGFR and at KDR (VEGFR2) were 6000 to 60000 nM and 10 to 100 nM, respectively.

Regarding `O=C(NC1CC1)c1ccccc1Oc1ccc2c(/C=C/c3ccc(CN4CCCC4)cn3)n[nH]c2c1` [Compound I-81, N-cyclopropyl-2-({3-[(E)-2-{5-[(pyrrolidin-1-yl)methyl]pyridin-2-yl}vinyl]-1H-indazol-6-yl}oxy)benzamide], the figures for the IC50 at EGFR and on KDR (VEGFR2) were 6000 to 60000 nM and 10 to 100 nM, respectively.

For the compound `CCNC(=O)c1cccc(F)c1Sc1ccc2c(/C=C/c3cccc(CCN4CCCC4)n3)n[nH]c2c1` [Compound I-129, N-ethyl-3-fluoro-2-({3-[(E)-2-{6-[2-(pyrrolidin-1-yl)ethyl]pyridin-2-yl}vinyl]-1H-indazol-6-yl}thio)benzamide], the IC50 is above 60000 nM at EGFR and 10 to 100 nM at KDR (VEGFR2).

The values are drawn from patent publication US20260049071A1, “PROTEIN TYROSINE KINASE INHIBITOR AND MEDICAL USE THEREOF” (BEYANG THERAPEUTICS CO., LTD., priority 2022, published 2026).
